Measurements taken from patent US12384792B2, “Solid forms of isoquinolinones, and process of making, composition comprising, and methods of using the same” (Twelve Therapeutics, Inc., priority 2015, dated 2025).
Values after ≈ are worked out from the molar mass of the structure shown. Read-outs that look alike come from different tables or passages of the source.

Legend:
Format in all cases: physicochemical
[1] = Static storage stability of solid forms (40° C./75% RH, 25° C./96% RH), form checked by XRPD; settings: for Static Stability 40° C./75% RH: dried screening sample, solid form after 7 and 36 days at 40° C./75% RH
[2] = Gravimetric vapour sorption (GVS) isotherm, hygroscopicity; settings: for weight increase (GVS): increase in relative humidity from about 0 to about 90% relative humidity
[3] = Solubility screen: solubility assessment of amorphous Compound 1 in solvents; settings: thermodynamic from solid, room temperature
Description: Amorphous Compound 1 (30 mg) was weighed out and 100 μl (˜3 vols) solvent was added at room temperature. Many samples initially dissolved but precipitated back out again after stirring for a few minutes. It was assumed that these samples had crystallized, so additional portions of solvent were added to determine the solubility of the crystalline material. See Table 1 for solubility assessment of amorphous Compound 1. […]

[4] = Competitive slurry/water activity experiments with Forms 1 and 6
Text: IPA/water and ACN/water were selected as suitable solvents for the competitive slurry/water activity experiments. These solvent mixtures were selected to have some solubility of the Compound 1 free base and to be able to obtain a wide range of water activities by varying the water content. IPA/water was selected as this solvent often formed solvated forms of the free base and ACN/water was selected as this solvent produced only Form 1 of the free base during the polymorph screening experiments.
There was one exception to this—the IPA/water sample at 50° C. and at a water activity of 0.8 gave Form 1 rather than Form 4.

[5] = Gravimetric vapour sorption (GVS); settings: for GVS total weight change 0-90% RH: 25° C.
Description: Gravimetric Vapour Sorption (GVS)
Sorption isotherms were obtained using a SMS DVS Intrinsic moisture sorption analyser, controlled by DVS Intrinsic Control software v1.0.1.2 (or v 1.0.1.3). The sample temperature was maintained at 25° C. by the instrument controls. The humidity was controlled by mixing streams of dry and wet nitrogen, with a total flow rate of 200 ml/min The relative humidity was measured by a calibrated Rotronic probe (dynamic range of 1.0-100% RH), located near the sample. The weight change, (mass relaxation) of the sample as a function of % RH was constantly monitored by the microbalance (accuracy ±0.005 mg). Typically 5-20 mg of sample was placed in a tared mesh stainless steel basket under ambient conditions. The sample was loaded and unloaded at 40% RH and 25° C. (typical room conditions). A moisture sorption isotherm was performed as outlined below (2 scans giving 1 complete cycle). The standard isotherm was performed at 25° C. at 10% RH intervals over a 0-90% RH range. Data analysis was carried out using Microsoft Excel using DVS Analysis Suite v6.2 (or 6.1 or 6.0).

[6] = Static stability on storage at controlled temperature/RH (XRPD, purity)
Text: (§1) See tables below for the summarized results.

[7] = Kinetic solubility after 30 min in water and in 0.1M HCl; settings: for solubility kinetic at 30 min: thermodynamic from solid, cocrystal, in duplicate, read-out: 30 min Kinetic solubility (pH)
Text: as §1

[8] = after 63 days, no change in form but loss of crystallinity
[9] = 7 d storage at 40° C./75% RH and at 25° C./97% RH, result stated for both conditions

C[C@H](NC(=O)c1c(N)nn2cccnc12)c1cc2cccc(C#Cc3cnn(C)c3)c2c(=O)n1-c1ccccc1 [Form 2, (S)-2-amino-N-(1-(8-((1-methyl-1H-pyrazol-4-yl)ethynyl)-1-oxo-2-phenyl-1,2-dihydroisoquinolin-3-yl)ethyl)pyrazolo[1,5-a]pyrimidine-3-carboxamide]
Static Stability 40° C./75% RH [1]: amorphous after 7
hygroscopicity [2]: non-hygroscopic
weight increase (GVS) [2]: about 1.3%

C[C@H](NC(=O)c1c(N)nn2cccnc12)c1cc2cccc(C#Cc3cnn(C)c3)c2c(=O)n1-c1ccccc1 [Form 7, (S)-2-amino-N-(1-(8-((1-methyl-1H-pyrazol-4-yl)ethynyl)-1-oxo-2-phenyl-1,2-dihydroisoquinolin-3-yl)ethyl)pyrazolo[1,5-a]pyrimidine-3-carboxamide]
Static Stability 40° C./75% RH [1]: remains Form 7

C[C@H](NC(=O)c1c(N)nn2cccnc12)c1cc2cccc(C#Cc3cnn(C)c3)c2c(=O)n1-c1ccccc1 [amorphous Compound 1, (S)-2-amino-N-(1-(8-((1-methyl-1H-pyrazol-4-yl)ethynyl)-1-oxo-2-phenyl-1,2-dihydroisoquinolin-3-yl)ethyl)pyrazolo[1,5-a]pyrimidine-3-carboxamide]
solubility ([3]; organic solvent or mixture, in 1,2-Dimethoxyethane): < 17 mg/mL
solubility ([3]; organic solvent or mixture, in 1,4-Dioxane): < 17 mg/mL
solubility ([3]; organic solvent or mixture, in 1-Propanol): < 17 mg/mL
solubility ([3]; organic solvent or mixture, in 2-Methoxyethanol): ≥ 333 mg/mL
solubility ([3]; organic solvent or mixture, in 2-Methyl-1-propanol): < 17 mg/mL
solubility ([3]; organic solvent or mixture, in 2-Propanol): < 17 mg/mL
solubility ([3]; organic solvent or mixture, in Acetone): < 17 mg/mL
solubility ([3]; organic solvent or mixture, in Acetonitrile): < 17 mg/mL
solubility ([3]; organic solvent or mixture, in Chloroform): < 17 mg/mL
solubility ([3]; organic solvent or mixture, in Cyclohexane): < 17 mg/mL
solubility ([3]; organic solvent or mixture, in Dichloromethane): 17 to 20 mg/mL (≈ 32.2 to 37.8 mM)
solubility ([3]; organic solvent or mixture, in Dimethyl sulfoxide): ≥ 333 mg/mL
solubility ([3]; organic solvent or mixture, in Ethanol): < 17 mg/mL
solubility ([3]; organic solvent or mixture, in Ethyl acetate): < 17 mg/mL
solubility ([3]; organic solvent or mixture, in Ethyleneglycol): < 17 mg/mL
solubility ([3]; organic solvent or mixture, in IPA/Water (95/5 v/v)): < 17 mg/mL
solubility ([3]; organic solvent or mixture, in Isopropyl acetate): < 17 mg/mL
solubility ([3]; organic solvent or mixture, in MEK): < 17 mg/mL
solubility ([3]; organic solvent or mixture, in MIBK): < 17 mg/mL
solubility ([3]; organic solvent or mixture, in Methanol): < 17 mg/mL
solubility ([3]; organic solvent or mixture, in N,N-Dimethylformamide): ≥ 333 mg/mL
solubility ([3]; organic solvent or mixture, in Nitromethane): 25 to 33 mg/mL (≈ 47.3 to 62.4 mM)
solubility ([3]; organic solvent or mixture, in THF/Water (95/5 v/v)): < 17 mg/mL
solubility ([3]; organic solvent or mixture, in Tetrahydrofuran): < 17 mg/mL
solubility ([3]; organic solvent or mixture, in Toluene): < 17 mg/mL
solubility ([3]; organic solvent or mixture, in n-Heptane): < 17 mg/mL
solubility ([3]; organic solvent or mixture, in tert-Butylmethyl ether): < 17 mg/mL
solubility ([3]; in Water): < 17 mg/mL

C[C@H](NC(=O)c1c(N)nn2cccnc12)c1cc2cccc(C#Cc3cnn(C)c3)c2c(=O)n1-c1ccccc1 [Form 6, (S)-2-amino-N-(1-(8-((1-methyl-1H-pyrazol-4-yl)ethynyl)-1-oxo-2-phenyl-1,2-dihydroisoquinolin-3-yl)ethyl)pyrazolo[1,5-a]pyrimidine-3-carboxamide]
Relative stability of forms in ACN/water slurry ([4]; 5° C., ACN/water, water activity 0.8 (15 vol % water)): more stable than Form 1
Hygroscopicity by GVS ([5]; 0-90% RH): hygroscopic. Large steps 40-60%
GVS total weight change 0-90% RH ([5]; 0-90% RH): 15.0 wt %
Static stability at 40° C./75% RH, XRPD ([6]; after 7 days): subtle changes in XRPD after
Static stability at 25° C./96% RH, XRPD ([6]; after 26 days): no change in XRPD after 26
Static stability at 40° C./75% RH, XRPD ([6]; after 26 days): no further changes after 26
weight increase (GVS) [2]: about 14%

C[C@H](NC(=O)c1c(N)nn2cccnc12)c1cc2cccc(C#Cc3cnn(C)c3)c2c(=O)n1-c1ccccc1 [Form 4, (S)-2-amino-N-(1-(8-((1-methyl-1H-pyrazol-4-yl)ethynyl)-1-oxo-2-phenyl-1,2-dihydroisoquinolin-3-yl)ethyl)pyrazolo[1,5-a]pyrimidine-3-carboxamide]
Static Stability 40° C./75% RH [1]: remains Form 4

C[C@H](NC(=O)c1c(N)nn2cccnc12)c1cc2cccc(C#Cc3cnn(C)c3)c2c(=O)n1-c1ccccc1 [Form 1 reference]
Hygroscopicity by GVS ([5]; 0-90% RH): non-
GVS total weight change 0-90% RH ([5]; 0-90% RH): ~0.5 wt %
Static stability at 25° C./96% RH, XRPD ([6]; after 7 days): no change after 7 days,
Static stability at 40° C./75% RH, XRPD ([6]; after 7 days): no change after 7 days,
Static stability at 25° C./96% RH, form by XRPD [6, 8]: after 63 days no change
Static stability at 40° C./75% RH, form by XRPD [6, 8]: after 63 days no change

C[C@H](NC(=O)c1c(N)nn2cccnc12)c1cc2cccc(C#Cc3cnn(C)c3)c2c(=O)n1-c1ccccc1 [Form 3, (S)-2-amino-N-(1-(8-((1-methyl-1H-pyrazol-4-yl)ethynyl)-1-oxo-2-phenyl-1,2-dihydroisoquinolin-3-yl)ethyl)pyrazolo[1,5-a]pyrimidine-3-carboxamide]
Static Stability 40° C./75% RH [1]: remains Form 3

C[C@H](NC(=O)c1c(N)nn2cccnc12)c1cc2cccc(C#Cc3cnn(C)c3)c2c(=O)n1-c1ccccc1 [Form 1, (S)-2-amino-N-(1-(8-((1-methyl-1H-pyrazol-4-yl)ethynyl)-1-oxo-2-phenyl-1,2-dihydroisoquinolin-3-yl)ethyl)pyrazolo[1,5-a]pyrimidine-3-carboxamide]
Relative stability of forms in ACN/water slurries ([4]; all ACN/water experiments except 50° C. and 5° C. at water activity 0.8): most stable form
Relative stability of forms in IPA/water slurries ([4]; all temperatures (5, 25, 50° C.) and water activities (0.2-0.8), slurried 4 days): more stable than Form 6
stability after storage ([1]; 25° C./96% RH for more than 9 months): stable
stability after storage ([1]; 40° C./75% RH for more than 9 months): stable
Static Stability 40° C./75% RH [1]: no change after 7
hygroscopicity [2]: non-hygroscopic
weight increase (GVS) [2]: about 0.5%

C[C@H](NC(=O)c1c(N)nn2cccnc12)c1cc2cccc(C#Cc3cnn(C)c3)c2c(=O)n1-c1ccccc1 [Form P1C3]
solubility kinetic at 30 min ([7]; 0.1M HCl, pH 1.3, simulated gastric fluid, in 0.1M HCl, pH 1.3): 0.02 mg/mL (≈ 0.0378 mM)
Kinetic solubility in 0.1M HCl compared with the free base ([7]; after 30 min, 0.1M HCl): very similar to the free base solubility
Kinetic solubility in water compared with the free base ([7]; after 30 min, water): slightly higher solubility values
Kinetic solubility with respect to the free base ([7]; summary statement): slight improve in solubility
solubility kinetic at 30 min ([7]; water, pH 2.9, water, in water, pH 2.9, 3.0): 0.04 mg/mL (≈ 0.0757 mM)
GVS hysteresis [5]: No hysteresis
GVS weight gain from 0-90% RH ([5]; 0-90% RH): 3.67%
Hygroscopicity by GVS ([5]; 0-90% RH): moderately hygroscopic
GVS weight gain ([5]; from 0-90% RH, cycle 2): 3.67%
HPLC purity change after 7 d 40° C. 75% RH 25° C. 97% RH [6, 9]: < 3% for both.
XRPD after 7 d 40° C. 75% RH 25° C. 97% RH [6, 9]: no change
XRPD after 7 d at 25° C. 97% RH ([6]; after 7 d): no changes
Static stability at 40° C./75% RH, XRPD ([6]; after 7 days): no changes
Stability at 25° C./96% RH, purity and XRPD ([6]; after a week): no significant change
Stability at 40° C./75% RH, purity and XRPD ([6]; after a week): no significant change
weight increase (GVS) [2]: about 3.7%
